Test results published in PubChem BioAssay (NCI).
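Exposure lasted 48 hours, with cells grown in 96-well plates and compounds tested at five concentrations. GI50 marks 50% less growth. TGI marks complete inhibition of growth.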

Assays:
Assay in all cases: growth of human tumour cells (NCI), 48 h
LOX IMVI melanoma = tested on: LOX IMVI melanoma
MALME-3M melanoma = tested on: MALME-3M melanoma
BT-549 breast = tested on: BT-549 breast
MDA-MB-231 breast = tested on: MDA-MB-231 breast
MDA-MB-435 = tested on: MDA-MB-435
U251 CNS = tested on: U251 CNS
SN12C renal = tested on: SN12C renal
RXF 393 renal = tested on: RXF 393 renal
SNB-75 CNS = tested on: SNB-75 CNS
OVCAR-4 ovarian = tested on: OVCAR-4 ovarian
HCC-2998 colon = tested on: HCC-2998 colon
HL-60(TB) leukemia = tested on: HL-60(TB) leukemia
KM12 colon = tested on: KM12 colon
SK-OV-3 ovarian = tested on: SK-OV-3 ovarian
SK-MEL-5 melanoma = tested on: SK-MEL-5 melanoma
NCI/ADR-RES ovarian = tested on: NCI/ADR-RES ovarian
SK-MEL-2 melanoma = tested on: SK-MEL-2 melanoma
TK-10 renal = tested on: TK-10 renal
A498 renal = tested on: A498 renal
OVCAR-5 ovarian = tested on: OVCAR-5 ovarian
SR leukemia = tested on: SR leukemia
UACC-62 melanoma = tested on: UACC-62 melanoma
HS 578T breast = tested on: HS 578T breast
SF-268 CNS = tested on: SF-268 CNS
HCT-116 colon = tested on: HCT-116 colon
NCI-H460 lung = tested on: NCI-H460 lung
NCI-H522 lung = tested on: NCI-H522 lung
PC-3 prostate = tested on: PC-3 prostate
RPMI-8226 leukemia = tested on: RPMI-8226 leukemia
786-0 renal = tested on: 786-0 renal
M14 melanoma = tested on: M14 melanoma
T-47D breast = tested on: T-47D breast
HOP-92 NSCLC = tested on: HOP-92 NSCLC
SF-539 CNS = tested on: SF-539 CNS
HT29 colon = tested on: HT29 colon
A549 NSCLC = tested on: A549 NSCLC
UO-31 renal = tested on: UO-31 renal
OVCAR-8 ovarian = tested on: OVCAR-8 ovarian
K-562 leukemia = tested on: K-562 leukemia
SF-295 CNS = tested on: SF-295 CNS
SNB-19 CNS = tested on: SNB-19 CNS
COLO 205 colon = tested on: COLO 205 colon
IGROV1 ovarian = tested on: IGROV1 ovarian
SW-620 colon = tested on: SW-620 colon
HOP-62 NSCLC = tested on: HOP-62 NSCLC
MOLT-4 leukemia = tested on: MOLT-4 leukemia
NCI-H226 lung = tested on: NCI-H226 lung
CCRF-CEM leukemia = tested on: CCRF-CEM leukemia
HCT-15 colon = tested on: HCT-15 colon
DU-145 prostate = tested on: DU-145 prostate
OVCAR-3 ovarian = tested on: OVCAR-3 ovarian
NCI-H23 lung = tested on: NCI-H23 lung
SK-MEL-28 melanoma = tested on: SK-MEL-28 melanoma
MCF7 breast = tested on: MCF7 breast
CAKI-1 renal = tested on: CAKI-1 renal
ACHN renal = tested on: ACHN renal
UACC-257 melanoma = tested on: UACC-257 melanoma

CC1(C)N=C(N)N=C(N)N1c1ccc(CCCCc2ccc(S(=O)(=O)F)cc2)cc1 was tested, and the GI50 (LOX IMVI melanoma) was 0.488 µM, the TGI (LOX IMVI melanoma) was 15 µM and the GI50 (MALME-3M melanoma) was 12.2 µM. It also gave a TGI (MALME-3M melanoma) of 32.4 µM, a GI50 (BT-549 breast) of 7.97 µM and a TGI (BT-549 breast) of 20.9 µM. For the same compound, the GI50 (MDA-MB-231 breast) was 3.53 µM, the TGI (MDA-MB-231 breast) was 25 µM and the GI50 (MDA-MB-435) was 0.506 µM. For the same compound, the TGI (MDA-MB-435) was 17 µM, the GI50 (U251 CNS) was 0.467 µM and the TGI (U251 CNS) was 15 µM. For the same compound, the GI50 (SN12C renal) was 1.2 µM, the TGI (SN12C renal) was 17.7 µM and the GI50 (RXF 393 renal) was 0.79 µM. It also gave a TGI (RXF 393 renal) of over 100 µM, a GI50 (SNB-75 CNS) of 2.16 µM and a TGI (SNB-75 CNS) of 20.2 µM. It also gave a GI50 (OVCAR-4 ovarian) of 8.23 µM, a TGI (OVCAR-4 ovarian) of over 86.5 µM and a GI50 (HCC-2998 colon) of 4.55 µM. The TGI (HCC-2998 colon) was 26.7 µM, the GI50 (HL-60(TB) leukemia) was 0.828 µM and the TGI (HL-60(TB) leukemia) was 22.1 µM. The GI50 (KM12 colon) was 0.601 µM, the TGI (KM12 colon) was 13 µM and the GI50 (SK-OV-3 ovarian) was 15.5 µM. It also gave a TGI (SK-OV-3 ovarian) of over 85 µM, a GI50 (SK-MEL-5 melanoma) of 0.574 µM and a TGI (SK-MEL-5 melanoma) of 13.4 µM. The GI50 (NCI/ADR-RES ovarian) was over 90.2 µM, the TGI (NCI/ADR-RES ovarian) was over 100 µM and the GI50 (SK-MEL-2 melanoma) was 4.91 µM. For the same compound, the TGI (SK-MEL-2 melanoma) was 21.8 µM, the GI50 (TK-10 renal) was 1.14 µM and the TGI (TK-10 renal) was 17.6 µM. It also gave a GI50 (A498 renal) of 3.81 µM, a TGI (A498 renal) of 87.6 µM and a GI50 (OVCAR-5 ovarian) of 2.62 µM. For the same compound, the TGI (OVCAR-5 ovarian) was over 100 µM, the GI50 (SR leukemia) was 0.58 µM and the TGI (SR leukemia) was 25.8 µM. The GI50 (UACC-62 melanoma) was 0.368 µM, the TGI (UACC-62 melanoma) was 16.8 µM and the GI50 (HS 578T breast) was 13.2 µM. For the same compound, the TGI (HS 578T breast) was 46 µM, the GI50 (SF-268 CNS) was 0.704 µM and the TGI (SF-268 CNS) was 16.9 µM. For the same compound, the GI50 (HCT-116 colon) was 0.373 µM, the TGI (HCT-116 colon) was 15.8 µM and the GI50 (NCI-H460 lung) was 0.153 µM. The TGI (NCI-H460 lung) was 13.3 µM, the GI50 (NCI-H522 lung) was 2.43 µM and the TGI (NCI-H522 lung) was 16.2 µM. For the same compound, the GI50 (PC-3 prostate) was 0.094 µM, the TGI (PC-3 prostate) was 23.5 µM and the GI50 (RPMI-8226 leukemia) was 0.522 µM. For the same compound, the TGI (RPMI-8226 leukemia) was 10.8 µM, the GI50 (786-0 renal) was 0.64 µM and the TGI (786-0 renal) was 19.1 µM. It also gave a GI50 (M14 melanoma) of 1.16 µM, a TGI (M14 melanoma) of 23.3 µM and a GI50 (T-47D breast) of 2.09 µM. For the same compound, the TGI (T-47D breast) was 10.3 µM, the GI50 (HOP-92 NSCLC) was 4.48 µM and the TGI (HOP-92 NSCLC) was 27.8 µM. It also gave a GI50 (SF-539 CNS) of 0.458 µM, a TGI (SF-539 CNS) of 11.6 µM and a GI50 (HT29 colon) of 0.4 µM. It also gave a TGI (HT29 colon) of 21.3 µM, a GI50 (A549 NSCLC) of 0.623 µM and a TGI (A549 NSCLC) of over 100 µM. For the same compound, the GI50 (UO-31 renal) was 35.1 µM, the TGI (UO-31 renal) was over 100 µM and the GI50 (OVCAR-8 ovarian) was 1.47 µM. The TGI (OVCAR-8 ovarian) was 28.6 µM, the GI50 (K-562 leukemia) was 0.472 µM and the TGI (K-562 leukemia) was 28.8 µM. It also gave a GI50 (SF-295 CNS) of 5.71 µM, a TGI (SF-295 CNS) of over 54.2 µM and a GI50 (SNB-19 CNS) of 2.58 µM. For the same compound, the TGI (SNB-19 CNS) was 19.4 µM, the GI50 (COLO 205 colon) was 2.28 µM and the TGI (COLO 205 colon) was 19.8 µM. It also gave a GI50 (IGROV1 ovarian) of 0.445 µM, a TGI (IGROV1 ovarian) of 23.5 µM and a GI50 (SW-620 colon) of 0.415 µM. It also gave a TGI (SW-620 colon) of 15.4 µM, a GI50 (HOP-62 NSCLC) of 3.86 µM and a TGI (HOP-62 NSCLC) of 20.1 µM. The GI50 (MOLT-4 leukemia) was 1.41 µM, the TGI (MOLT-4 leukemia) was 24.3 µM and the GI50 (NCI-H226 lung) was 1.99 µM. The TGI (NCI-H226 lung) was 33.2 µM, the GI50 (CCRF-CEM leukemia) was 0.561 µM and the TGI (CCRF-CEM leukemia) was 19.7 µM. The GI50 (HCT-15 colon) was 3.16 µM, the TGI (HCT-15 colon) was over 100 µM and the GI50 (DU-145 prostate) was 0.833 µM. For the same compound, the TGI (DU-145 prostate) was 28.2 µM, the GI50 (OVCAR-3 ovarian) was 3.88 µM and the TGI (OVCAR-3 ovarian) was 16.4 µM. For the same compound, the GI50 (NCI-H23 lung) was 2.6 µM, the TGI (NCI-H23 lung) was 24.8 µM and the GI50 (SK-MEL-28 melanoma) was 4.57 µM. It also gave a TGI (SK-MEL-28 melanoma) of 20.3 µM, a GI50 (MCF7 breast) of 0.425 µM and a TGI (MCF7 breast) of 14.2 µM. For the same compound, the GI50 (CAKI-1 renal) was 3.7 µM, the TGI (CAKI-1 renal) was over 100 µM and the GI50 (ACHN renal) was 4.68 µM. It also gave a TGI (ACHN renal) of over 100 µM, a GI50 (UACC-257 melanoma) of 2.07 µM and a TGI (UACC-257 melanoma) of 18.3 µM.
